Laboratory results taken from patent US12396961B2, “Compounds and compositions for intracellular delivery of agents” (ModernaTX, Inc., priority 2015, dated 2025).

Columns and labels:
[1] = Encapsulation efficiency of RNA (QUANT-IT RIBOGREEN RNA assay); format: physicochemical
Excerpt: The efficiency of encapsulation of a therapeutic and/or prophylactic agent describes the amount of therapeutic and/or prophylactic agent that is encapsulated or otherwise associated with a nanoparticle composition after preparation, relative to the initial amount provided. The encapsulation efficiency is desirably high (e.g., close to 100%). The encapsulation efficiency may be measured, for example, by comparing the amount of therapeutic and/or prophylactic agent in a solution containing the nanoparticle composition before and after breaking up the nanoparticle composition with one or more organic solvents or detergents. Fluorescence may be used to measure the amount of free therapeutic and/or prophylactic agent (e.g., RNA) in a solution. […]
For nanoparticle compositions including an RNA, a QUANT-IT™ RIBOGREEN® RNA assay (Invitrogen Corporation Carlsbad, CA) can be used to evaluate the encapsulation of an RNA by the nanoparticle composition. […] The fluorescence intensity can be measured using a fluorescence plate reader (Wallac Victor 1420 Multilablel Counter; Perkin Elmer, Waltham, MA) at an excitation wavelength of, for example, about 480 nm and an emission wavelength of, for example, about 520 nm. […]

[2] = Particle size and polydispersity index (Zetasizer Nano ZS); format: physicochemical; details: Table 1; for PDI: DOPE 40:20:38.5:1.5, Luc mRNA
Procedure, shortened: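 Particle size and polydispersity index were measured by dynamic light scattering on a Zetasizer Nano ZS in 1×PBS. Zeta potential was measured in 15 mM PBS.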

hEPO mRNA expression [3] = test: hEPO levels in non-human primates; format: in vivo
Description: FIG. 10 is a graph showing hEPO levels in non-human primates up to −50 h after administration of a nanoparticle composition containing Compound 4, compared to a composition containing MC3.
The tolerability and efficacy of nanoparticle compositions to non-human primates is evaluated in Cynomolgus monkeys. Monkeys are administered an optimized nanoparticle composition including an mRNA encoding hEPO once weekly for four weeks. The levels of hEPO protein, mRNA, and cytokine profiles are measured using ELISA-based techniques before and 2, 6, 12, 24, 48, 72, and 120 hours after each administration.

[4] = system: GFP mRNA expression in liver cells; test: Mouse liver immunohistochemistry (IHC) of GFP after GFP mRNA LNP; format: in vivo, CD-1 mouse; LDLR knockout mouse; details: i.v. 0.5 mpk; MC3: CD-1 mouse, 6h; Compound 4: LDLR knockout mouse, 8h
Description: FIG. 11 is a pair of images comparing the results of a mouse liver immunohistochemistry (IHC) using mRNA expressing green fluorescent protein (GFP) after administration of nanoparticle compositions containing Compound 4 and MC3.
FIG. 16 is a graph showing GFP levels in the livers of LDLR knockout mice at 30 min to 24 h after intravenous administration of an eGFP RNA in a lipid composition containing Compound 4. The liver GFP levels were determined via IHC. The square markers represent the number of GFP positive cells following administration of a dose of 0.1 mpk of the composition. The circular markers represent the number of GFP positive cells following administration of a dose of 0.5 mpk of the composition.

[5] = system: LDLr mRNA / Luc expression; test: Expression (AUC) in LDLr−/− mice relative to KL22; format: in vivo; details: Table 7b
[6] = Lipid levels (clearance) in liver and spleen 48 hours after administration; format: in vivo, rats; details: rat liver, 48 h
Description: Formulations were administered intravenously to rats (n=3 or 6) at a dosage of 0.2 mg/kg or 0.5 mg/kg (mpk) and hEPO levels measured at 3, 6, and 24 hour time points. After the 48 hour time point, livers and spleens were harvested and frozen.
The amount of lipid in the liver and spleen 48 hours after administration of a nanoparticle composition was also measured. […] In contrast, approximately 60% of doses including MC3 or Compound 22 remained in the liver after 48 hours. Less than 3% of the dose remained in the spleen for each composition tested.

[7] = system: luciferase (Luc) mRNA expression; test: Luc expression (AUC) in CD-1 mice relative to MC3; format: in vivo
Procedure, shortened: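 CD-1 mice dosed at 0.5 mpk with nanoparticle compositions carrying luciferase mRNA; total light flux acquired by whole-body luminescent imaging 6 h after administration. Expression referenced to MC3-containing composition.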

rats = test: Tolerability / toxicity in rats dosed i.v. with hEPO mRNA LNP; format: in vivo; details: 2 mg/kg dose
LDL-c = test: LDL (LDL-c) levels in LDLr−/− mice after mRNA encoding the LDL receptor; format: in vivo, LDLR knockout mice; details: Compound 11 at 0.5 and 1 mpk
hEPO mRNA expression [8] = test: Expression of hEPO after intravenous administration to rats; format: in vivo; details: rats, 2 mpk, i.v. (Graph A); in words
Description: PBS (phosphate buffered saline) is used as control.
Formulations were prepared according to Table 5 and included mRNA encoding hEPO.
[…] After the 48 hour time point, livers and spleens were harvested and frozen.

In the case of CCCCC/C=C\CCCCCN(CCCCC/C=C\CCCCC)CCN1CCN(CCN(CCCCCCCCCCCC)CCN(CCCCCCCCCCCC)CCCCCCCCCCCC)CC1 [Compound 25, N^1-(2-(4-(2-(Di((Z)-dodec-6-en-1-yl)amino)ethyl)piperazin-1-yl)ethyl)-N^1,N^2,N^2-tridodecylethane-1,2-diamine], the “EE (%)” value ([1]; Table 1, DOPE 40:20:38.5:1.5, Luc mRNA) is reported as 97.0% and the “Size (nm)” value ([2]; lipid:DOPE:Chol:PEG-DMG 40:20:38.5:1.5, Luc mRNA, MC3 standard formulation) is reported as 90.0 nm.
With CCCCCCCCCCCCN(CCCCCCCCCCCC)CCN1CCN(C(=O)CN(CCCCCCCCCCCC)CCN(CCCCCCCCCCCC)CCCCCCCCCCCC)CC1 [Compound 2, 2-((2-(Didodecylamino)ethyl)(dodecyl)amino)-1-(4-(2-(didodecylamino)ethyl)piperazin-1-yl)ethan-1-one] the “EE (%)” value ([1]; Table 1, marked *: lipid:DSPC:Chol:PEG-DMG 50:10:38.5:1.5) was 96%.
For CCCCCCCCCN(CCCCCCCCC)CCN(CCCCCCCCC)CC(=O)N1CCN(C(=O)CN(CCCCCCCCC)CCCCCCCCC)CC1 [Compound 4, 2-(Dinonylamino)-1-(4-(N-(2-(dinonylamino)ethyl)-N-nonylglycyl)piperazin-1-yl)ethan-1-one], the “hEPO expression compared to MC3 (FIG. 10)” value (hEPO mRNA expression [3]) was 3 fold, the PDI [2] was 0.120 and the “GFP protein expression in liver cell types (IHC, FIG. 11)” value [4] was “less protein expression in Kupffer cells”. For the same molecule, the “Lipid/KL22 AUC LDLr−/− mice 0.5 mpk, LDLr” value [5] was 2.03, the “% dose remaining Rat liver (48 h)” value [6] was 37.82% and the “Lipid/MC3 AUC CD-1 mice 0.5 mpk” value ([7]; Table 7b, Luc expression, CD-1 mice, 0.5 mpk) was 3.70.
For CCCCCCCCCCCCN(CCCCCCCCCCCC)CCN(CCCCCCCCCCCC)CC(=O)N1CCN(C(=O)CN(CCCCCCCCCCCC)CCCCCCCCCCCC)CC1 [Compound 11, 2-(Didodecylamino)-1-(4-(N-(2-(didodecylamino)ethyl)-N-dodecylglycyl)piperazin-1-yl)ethan-1-one], the “Tolerability / toxicity in rats (FIG. 8)” value (rats) was “improved tolerability as compared to KL22”, the “LDL-c levels in LDLR knockout mice (FIG. 9B)” value (LDL-c) was “found to drop” and the “hEPO expression in rats (FIG. 8)” value (hEPO mRNA expression [8]) was “comparable to MC3”. The PDI [2] was 0.099 and the “Lipid/MC3 Luc CD-1 (mice)” value ([7]; Luc expression relative to MC3, CD-1 mice) was 1.03.
